For one test, the target named is adenosine A2B receptor (Homo sapiens (Human), UniProt P29275). Description: Adenosine receptor activity assay (Table 1), A2B activity. The class given is biochemical. Particulars: for IC50: read-out: Ave A2B cAMP IC50.
The next test addresses adenosine A2A receptor (Homo sapiens (Human), UniProt P29274). The experiment in a line: Adenosine receptor activity assay (Table 1), A2A activity. The class given is biochemical. Particulars: read-out: Ave A2A cAMP IC50.
Setting [1] is: A2A activity to A2B activity (A2A/A2B).
[2] abbreviates: A2A activity to the A2B activity, A2A/A2B.

Some results are limits rather than exact numbers.

Sequence of adenosine A2B receptor (P29275 whole entry): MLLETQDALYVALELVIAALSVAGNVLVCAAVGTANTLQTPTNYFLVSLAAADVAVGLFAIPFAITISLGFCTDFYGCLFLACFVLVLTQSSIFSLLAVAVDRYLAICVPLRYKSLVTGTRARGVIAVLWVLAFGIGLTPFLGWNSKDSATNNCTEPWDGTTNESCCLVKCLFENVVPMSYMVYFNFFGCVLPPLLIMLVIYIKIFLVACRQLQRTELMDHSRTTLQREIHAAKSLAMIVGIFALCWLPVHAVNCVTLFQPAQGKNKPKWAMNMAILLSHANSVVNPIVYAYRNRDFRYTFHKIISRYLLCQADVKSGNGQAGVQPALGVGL
Sequence of adenosine A2A receptor (P29274 whole entry): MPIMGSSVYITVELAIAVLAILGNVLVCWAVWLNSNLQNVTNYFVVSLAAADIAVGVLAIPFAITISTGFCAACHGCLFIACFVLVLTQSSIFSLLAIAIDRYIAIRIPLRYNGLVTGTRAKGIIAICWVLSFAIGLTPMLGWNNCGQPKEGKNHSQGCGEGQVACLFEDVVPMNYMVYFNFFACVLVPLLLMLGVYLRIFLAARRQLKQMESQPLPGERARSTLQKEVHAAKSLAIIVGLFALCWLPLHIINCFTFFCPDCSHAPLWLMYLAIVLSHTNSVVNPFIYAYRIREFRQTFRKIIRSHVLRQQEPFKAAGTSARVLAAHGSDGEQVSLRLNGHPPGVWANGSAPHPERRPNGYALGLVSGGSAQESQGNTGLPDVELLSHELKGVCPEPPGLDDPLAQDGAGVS

In the case of `CC(=O)N[C@H]1CCN(C(=O)c2nc(N[C@@H](C)c3ccccn3)nc3ccsc23)C1` [Example Z324, N—((S)-1-(2-(((S)-1-(Pyridin-2-yl)ethyl)amino)thieno[3,2-d]pyrimidine-4-carbonyl)pyrrolidin-3-yl)acetamide], the Ratio at adenosine A2B receptor (setting [1]) stood at 28.39. The IC50 at adenosine A2B receptor is 10 to 50 nM; on adenosine A2A receptor, over 500 nM.
Consider “Azetidin-1-yl(2-(((6-methoxypyridin-3-yl)methyl)amino)thieno[3,2-d]pyrimidin-4-yl)methanone [Example Z433]”, for which the Ratio on adenosine A2B receptor (setting [2]) amounted to 0.22. The figures for the IC50 at adenosine A2B receptor and on adenosine A2A receptor were over 500 nM and 100 to 500 nM, respectively.
For `CO[C@H]1C[C@@H](NC(=O)c2nc(N[C@@H](C)c3cccnc3)nc3ccsc23)C1` [Example Z296, N-((1s,3R)-3-Methoxycyclobutyl)-2-(((S)-1-(pyridin-3-yl)ethyl)amino)thieno[3,2-d]pyrimidine-4-carboxamide], the Ratio on adenosine A2B receptor (setting [1]) stood at 1.07. The IC50 on adenosine A2B receptor and at adenosine A2A receptor was 100 to 500 nM throughout.
As to `C[C@H](Nc1nc(C(=O)N2CCCCC2)c2sccc2n1)c1cccnc1` [Example Z31, (S)-Piperidin-1-yl(2-((1-(pyridin-3-yl)ethyl)amino)thieno[3,2-d]pyrimidin-4-yl)methanone], the Ratio on adenosine A2B receptor (setting [1]) came out at 40.00. For the same molecule, the figures for the 50% inhibitory concentration (IC50) at adenosine A2B receptor and on adenosine A2A receptor were 100 to 500 nM and over 500 nM, respectively.
Take `C[C@H](Nc1nc(C(=O)N2CCC[C@H]2CO)c2sccc2n1)c1cccnc1` [Example Z47, ((S)-2-(Hydroxymethyl)pyrrolidin-1-yl)(2-(((S)-1-(pyridin-3-yl)ethyl)amino)thieno[3,2-d]pyrimidin-4-yl)methanone]: the Ratio on adenosine A2B receptor (setting [1]) is 1.00. In addition, the concentration for half-maximal inhibition (IC50) at adenosine A2B receptor and at adenosine A2A receptor was over 500 nM throughout.
Consider `C[C@H](Nc1nc(C(=O)N2CCN(CCCc3ccccc3)CC2)c2sccc2n1)c1cccnc1` [Example Z69, (S)-(4-(3-Phenylpropyl)piperazin-1-yl)(2-((1-(pyridin-3-yl)ethyl)amino)thieno[3,2-d]pyrimidin-4-yl)methanone], for which the Ratio on adenosine A2B receptor (setting [1]) came to 0.92. The IC50 at adenosine A2B receptor and at adenosine A2A receptor was over 500 nM each time.
With `COC[C@H]1CCN(C(=O)c2nc(N[C@@H](C)c3ccccn3)nc3ccsc23)C1` [Example Z470, ((S)-3-(Methoxymethyl)pyrrolidin-1-yl)(2-(((S)-1-(pyridin-2-yl)ethyl)amino)thieno[3,2-d]pyrimidin-4-yl)methanone], the Ratio at adenosine A2B receptor (setting [2]) came to 1.07. Further, the values for the half-inhibitory concentration (IC50) at adenosine A2B receptor and on adenosine A2A receptor were 50 to 100 nM and 100 to 500 nM, respectively.
As to `C[C@H](Nc1nc(C(=O)NC[C@H]2CCCN2)c2sccc2n1)c1ccccn1` [Example Z370, 2-(((S)-1-(pyridin-2-yl)ethyl)amino)-N—(((R)-pyrrolidin-2-yl)methyl)thieno[3,2-d]pyrimidine-4-carboxamide], the Ratio at adenosine A2B receptor (setting [1]) came out at 1.81. Besides, the IC50 on adenosine A2B receptor and on adenosine A2A receptor was over 500 nM each time.
Turning to `C[C@H](Nc1nc(C(=O)N2CCC(C(=O)OC(C)(C)C)C2)c2sccc2n1)c1ccccn1` (stereo partly drawn) [Example Z355, tert-Butyl 1-(2-(((S)-1-(pyridin-2-yl)ethyl)amino)thieno[3,2-d]pyrimidine-4-carbonyl)pyrrolidine-3-carboxylate], the Ratio at adenosine A2B receptor (setting [1]) came out at 1.96. Moreover, the IC50 is 100 to 500 nM at adenosine A2B receptor and over 500 nM at adenosine A2A receptor.
For `O=C(c1nc(NCCc2ccccc2)nc2ccsc12)N1CCCC1` [Example Z258, (2-(Phenethylamino)thieno[3,2-d]pyrimidin-4-yl)(pyrrolidin-1-yl)methanone], in that order: 1.70, 100 to 500 nM and 100 to 500 nM.
In the same order, the values of `C[C@H](NC(=O)c1nc(N[C@@H](C)c2ccncc2)nc2ccsc12)c1ccncc1` [Example Z338, N—((S)-1-(Pyridin-4-yl)ethyl)-2-(((S)-1-(pyridin-4-yl)ethyl)amino)thieno[3,2-d]pyrimidine-4-carboxamide] are 1.50, 100 to 500 nM and over 500 nM.
For the molecule `C[C@H](Nc1nc(C(=O)NCc2nccn2C)c2sccc2n1)c1ccccn1` [Example Z290, (S)—N-((1-Methyl-1H-imidazol-2-yl)methyl)-2-((1-(pyridin-2-yl)ethyl)amino)thieno[3,2-d]pyrimidine-4-carboxamide], the Ratio on adenosine A2B receptor (setting [1]) was determined as 1.63. Further, the IC50 at adenosine A2B receptor and at adenosine A2A receptor was over 500 nM throughout.
Turning to `C[C@H](Nc1nc(C(=O)N2CCCC2)c2sccc2n1)c1ccncc1` [Example Z344, (S)-(2-((1-(Pyridin-4-yl)ethyl)amino)thieno[3,2-d]pyrimidin-4-yl)(pyrrolidin-1-yl)methanone], the Ratio at adenosine A2B receptor (setting [1]) turned out to be 8.03. Also, the concentration for half-maximal inhibition (IC50) at adenosine A2B receptor was 10 to 50 nM; at adenosine A2A receptor, 100 to 500 nM.
As to `O=C(c1nc(NCc2cncc(C(F)(F)F)c2)nc2ccsc12)N1CCC1` [Example Z257, Azetidin-1-yl(2-(((5-(trifluoromethyl)pyridin-3-yl)methyl)amino)thieno[3,2-d]pyrimidin-4-yl)methanone], the Ratio on adenosine A2B receptor (setting [1]) amounted to 9.16. Besides, the IC50 at adenosine A2B receptor is 50 to 100 nM; at adenosine A2A receptor, over 500 nM.
`CO[C@@H](C)CNC(=O)c1nc(N[C@@H](C)c2cccnc2)nc2cc(C)sc12` [Example Z399, N—((S)-2-Methoxypropyl)-6-methyl-2-(((S)-1-(pyridin-3-yl)ethyl)amino)thieno[3,2-d]pyrimidine-4-carboxamide]: at adenosine A2B receptor (setting [2]), the Ratio came out at 161.94. Also, the half-inhibitory concentration (IC50) is 10 to 50 nM at adenosine A2B receptor and over 500 nM at adenosine A2A receptor.
`C[C@H](Nc1nc(C(=O)N2CCC[C@@H]2C)c2sccc2n1)c1cccnc1` [Example Z36, ((S)-2-Methylpyrrolidin-1-yl)(2-(((S)-1-(pyridin-3-yl)ethyl)amino)thieno[3,2-d]pyrimidin-4-yl)methanone]: the Ratio at adenosine A2B receptor (setting [1]) was determined as 1.55. Also, the IC50 on adenosine A2B receptor and at adenosine A2A receptor was 100 to 500 nM throughout.
Turning to `COc1ccc(CNC(=O)c2nc(N[C@@H](C)c3ccccn3)nc3ccsc23)cc1` [Example Z474, (S)—N-(4-Methoxybenzyl)-2-((1-(pyridin-2-yl)ethyl)amino)thieno[3,2-d]pyrimidine-4-carboxamide], the Ratio at adenosine A2B receptor (setting [2]) amounted to 0.80. The IC50 at adenosine A2B receptor and at adenosine A2A receptor was 50 to 100 nM in each case.
As for `C[C@H](Nc1nc(C(=O)NCCN)c2sccc2n1)c1cncc(F)c1` [Example Z536, (S)—N-(2-Aminoethyl)-2-((1-(5-fluoropyridin-3-yl)ethyl)amino)thieno[3,2-d]pyrimidine-4-carboxamide], the Ratio at adenosine A2B receptor (setting [2]) turned out to be 10.26. The IC50 on adenosine A2B receptor and at adenosine A2A receptor was over 500 nM each time.
For `N[C@H]1CCN(C(=O)c2nc(NCc3cc(F)cc(F)c3)nc3ccsc23)C1` [Example Z371, (S)-(3-Aminopyrrolidin-1-yl)(2-((3,5-difluorobenzyl)amino)thieno[3,2-d]pyrimidin-4-yl)methanone], on adenosine A2B receptor (setting [1]), the Ratio was 11.56. The IC50 on adenosine A2B receptor and on adenosine A2A receptor was over 500 nM each time.
For the molecule `C[C@H](Nc1nc(C(=O)N[C@H]2C[C@H](O)C2)c2sccc2n1)c1cncc(Cl)c1` [Example Z306, 2-(((S)-1-(5-Chloropyridin-3-yl)ethyl)amino)-N-((1r,3S)-3-hydroxycyclobutyl)thieno[3,2-d]pyrimidine-4-carboxamide], the Ratio on adenosine A2B receptor (setting [1]) is listed as 40.62. In addition, the IC50 is 10 to 50 nM at adenosine A2B receptor and over 500 nM on adenosine A2A receptor.
Turning to `C[C@@H](O)CNC(=O)c1nc(NCc2cncc(C(F)(F)F)c2)nc2ccsc12` [Example Z266, (R)—N-(2-Hydroxypropyl)-2-(((5-(trifluoromethyl)pyridin-3-yl)methyl)amino)thieno[3,2-d]pyrimidine-4-carboxamide], the Ratio at adenosine A2B receptor (setting [1]) is reported as 34.17. Further, the half-maximal inhibitory concentration (IC50) was 100 to 500 nM at adenosine A2B receptor and over 500 nM on adenosine A2A receptor.
In the case of `COc1ccc(CCNC(=O)c2nc(N[C@@H](C)c3cncc(F)c3)nc3ccsc23)cc1` [Example Z420, (S)-2-((1-(5-Fluoropyridin-3-yl)ethyl)amino)-N-(4-methoxyphenethyl)thieno[3,2-d]pyrimidine-4-carboxamide], the Ratio at adenosine A2B receptor (setting [2]) is on record as 5.38. Also, the IC50 on adenosine A2B receptor fell in the range of 50 to 100 nM; on adenosine A2A receptor it was 100 to 500 nM.
In the same order, the values of `Cc1cc2nc(N[C@@H](C)c3cccnc3)nc(C(=O)N3CC(CN)C3)c2s1` [Example Z499, (S)-(3-(Aminomethyl)azetidin-1-yl)(6-methyl-2-((1-(pyridin-3-yl)ethyl)amino)thieno[3,2-d]pyrimidin-4-yl)methanone] are 13.99, over 500 nM and over 500 nM.
With `COC[C@@H](Nc1nc(C(=O)NC[C@@H](C)O)c2sccc2n1)c1cccnc1` [Example Z321, N—((R)-2-Hydroxypropyl)-2-(((S)-2-methoxy-1-(pyridin-3-yl)ethyl)amino)thieno[3,2-d]pyrimidine-4-carboxamide], the Ratio at adenosine A2B receptor (setting [1]) is reported as 3.66. For the same molecule, the IC50 at adenosine A2B receptor fell in the range of 50 to 100 nM; at adenosine A2A receptor, 100 to 500 nM.
As to `COc1ccc(CNC(=O)c2nc(NCc3cncc(F)c3)nc3ccsc23)cn1` [Example Z67, 2-(((5-Fluoropyridin-3-yl)methyl)amino)-N-((6-methoxypyridin-3-yl)methyl)thieno[3,2-d]pyrimidine-4-carboxamide], the concentration for half-maximal inhibition (IC50) is 10 to 50 nM at adenosine A2B receptor and 100 to 500 nM at adenosine A2A receptor.
Regarding `C[C@H](Nc1nc(C(=O)N[C@@H]2CC[C@@H](O)C2)c2sccc2n1)c1cncc(F)c1` [Example Z395, 2-(((S)-1-(5-Fluoropyridin-3-yl)ethyl)amino)-N-((1R,3R)-3-hydroxycyclopentyl)thieno[3,2-d]pyrimidine-4-carboxamide], at adenosine A2B receptor (setting [1]), the Ratio was found to be 32.64. For the same molecule, the values for the IC50 on adenosine A2B receptor and on adenosine A2A receptor were 10 to 50 nM and 100 to 500 nM, respectively.
Turning to `NC(=O)c1cncc(CNc2nc(C(=O)N3CCCC3)c3sccc3n2)c1` [Example Z142, 5-(((4-(Pyrrolidine-1-carbonyl)thieno[3,2-d]pyrimidin-2-yl)amino)methyl)nicotinamide], the Ratio on adenosine A2B receptor (setting [1]) is 2.76. Besides, the 50% inhibitory concentration (IC50) on adenosine A2B receptor and at adenosine A2A receptor was over 500 nM in each case.

The values are drawn from patent US11254686B1 (Corvus Pharmaceuticals, Inc., priority 2017, dated 2022).
